We go through 41 molecules from patent US12377086B2, “Therapeutic methods, combinations and kits” (priority 2021, dated 2025).

Test in all cases: biochemical
Test [1] has as its target T1, VIM-2 (Pseudomonas aeruginosa, UniProt Q5U7L7). The procedure: (§1) The pET24a-VIM-2 plasmid was transformed into competent BL21 (DE3) E. coli cells. The cells were plated onto an LB-agar plate with kanamycin (25 μg/mL) and incubated overnight at 37° C. A single colony was used to inoculate 50 mL of LB, containing 25 μg/mL kanamycin, and the culture was shaken overnight at 37° C. From the overnight culture, 10 mL were transferred to 4×IL LB medium containing 25 μg/mL kanamycin. The cultures were grown at 37° C. until an optical density (OD600 nm) of 0.6-0.8 was reached, at which point protein production was induced with IPTG (0.5 mM) and ZnCl2 (100 μM). The temperature was reduced to 20° C., and the cells were shaken for an additional 18 h. The cultures were harvested by centrifugation (8 Kxg) for 10 min at 4° C. The resulting pellets were re-suspended in 25 mL of 50 mM HEPES, pH 7.5, containing 500 mM NaCl (buffer B). The cells were lysed with three passes through a French Press. The lysate was centrifuged (15 Kxg) for 30 min at 4° C. The supernatant was dialyzed against 2 L of 50 mM HEPES, pH 7.5 (buffer A), for 4 h. Buffer A was used to equilibrate a 25 mL Q-Sepharose column using an FPLC. The sample was loaded onto the column, and proteins were eluted with a linear gradient 0-500 mM NaCl with buffer B. Fractions containing VIM-2, determined by SDS-PAGE, were pooled and concentrated to 2-3 mL in an Amicon ultraconcentrator equipped YM-10 membrane. Further purification was conducted with a Sephacryl S-200 gel filtration column using 50 mM HEPES, pH 7.5, containing 150 mM NaCl. Fractions containing pure VIM-2 were pooled, and metal analysis was performed.
(§2) To identify potential MBL inhibitors, the relative change in the formation of hydrolyzed nitrocefin between treated and untreated MBL was determined as percentage inhibition. 5 nM of each BML was pre-incubated for 10 mins with 50 μM of each compound, followed by the addition of 10 μM nitrocefin.
(§3) Each MBL was incubated with 50 μM of each compound, followed by the addition of nitrocefin. The relative change in absorbance is reported as percentage inhibition.

The target of test [2] is NDM-1 (Klebsiella pneumoniae, UniProt C7C422). The protocol:
BL21 (DE3) E. coli cells containing the pET26b-ndm-1 plasmid were used to inoculate a 50 mL LB starter culture containing kanamycin (25 μg/mL). The culture was grown overnight at 37° C. The starter culture was then used to inoculate 4×1 L LB containing kanamycin (25 μg/mL). These flasks were incubated at 37° C. until culture reached an optical density of (OD600) of 0.6 to 0.8. The incubator was then set to 22° C. and the cultures were shaken for 30 min to allow them to cool. ZnCl2 ([…]) and IPTG (0.5 mM) were then added to the cultures and they were grown for 18 h at 22° C. The cells were then harvested using centrifugation (8000×g) for 10 min. The pellet was resuspended with 25 mL 50 mM HEPES, pH 7.5 containing 500 mM NaCl (Buffer B). Lysis was performed with three passes through a French Press. The lysate was centrifuged for 30 min (15,000×g) at 4° C. The supernatant was then dialyzed versus 2 L 50 mM HEPES, pH 7.5 (Buffer C) for 4 h. An FPLC was used to equilibrate a Q-Sepharose column using buffer C using a flowrate of 2.0 mL/min for 1.5 h. The lysate was then loaded onto the column and eluted with a linear NaCl gradient from 0-500 mM. Fractions containing NDM-1 were identified with SDS-PAGE. These fractions were pooled and concentrated to 2-3 mL in an Amicon ultracentrifugation concentrating unit with a YM-10 membrane. The resulting protein mixture was then loaded onto a Sephacryl S-200 gel filtration column run with 50 mM HEPES, pH 7.5 containing 150 mM NaCl (Buffer A). SDS-PAGE was used to identify fractions containing pure protein.
as §2, §3

Test [3] addresses T1, VIM-2. To be noted: for IC50: 5 nM MBL, 10 μM nitrocefin, read-out: VIM-2 IC50; for Ki: nitrocefin substrate, competitive-inhibition fit, read-out: VIM-2 Ki. The procedure:
as §1, with “Further purification was conducted with a Sephacryl S-200 gel filtration column using 50 mM HEPES, pH 7.5, containing 150 mM NaCl.” left out
The enzyme inhibition constant (Ki) was derived from initial-velocity measurements by nonlinear regression using competitive-inhibition enzyme kinetics using Graphpad Prism 6.

[4] abbreviates: 50 μM compound, 5 nM MBL, 10 μM nitrocefin, 30 mins, read-out: VIM-2 percentage inhibition.
[5] abbreviates: 50 μM compound, 5 nM MBL, 10 μM nitrocefin, 30 mins, read-out: NDM-1 percentage inhibition.
The mark [6] stands for this setting: read-out: VIM-2 percentage inhibition.
Where [7] appears, read: read-out: NDM-1 percentage inhibition, 50 μM compound, 5 nM MBL, 10 μM nitrocefin, 30 mins.
[8] abbreviates: 50 μM compound, 5 nM MBL, 10 μM nitrocefin, 30 mins.

Read-outs that look alike come from different tables or passages of the source.

NDM-1, sequence (C7C422 whole entry, looked up, species assumed): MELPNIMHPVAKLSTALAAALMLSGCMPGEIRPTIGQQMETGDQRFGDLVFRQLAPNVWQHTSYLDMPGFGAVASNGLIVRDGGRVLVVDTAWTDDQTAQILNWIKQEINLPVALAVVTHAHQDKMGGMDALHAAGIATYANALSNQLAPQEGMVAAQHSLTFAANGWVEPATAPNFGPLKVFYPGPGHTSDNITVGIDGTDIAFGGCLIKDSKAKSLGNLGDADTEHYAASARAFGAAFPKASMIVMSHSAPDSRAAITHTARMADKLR

Regarding `CCOC(=O)CS` [Compound 2], the inhibition at 50 µM in test [1] (setting [4]) amounted to 16%; in test [2] (setting [5]), 55%.

As to `CC(S)C(=O)O` (stereo not shown) [Compound 3], the inhibition at 50 µM in test [1] (setting [4]) turned out to be 17%; in test [2] (setting [5]) it was 50%.

As for `O=C(O)CC(S)C(=O)O` (stereo not shown) [Compound 4], the inhibition at 50 µM in test [1] (setting [6]) came to 22%; in test [2] (setting [7]) it was 39%.

For the molecule `Oc1ccnc(S)n1` [Compound 6], the inhibition at 50 µM in test [1] (setting [6]) worked out at 13%; in test [2] (setting [7]) it was 48%.

On to `Nc1nc(S)ncc1C(=O)O` [Compound 7], for which the inhibition at 50 µM in test [1] (setting [4]) came out at 9%; in test [2] (setting [5]) it was 44%.

Regarding `Cc1nc(S)nc(O)c1CC(=O)O` [Compound 8], the inhibition at 50 µM in test [1] (setting [4]) worked out at 18%; in test [2] (setting [5]), 63%.

As to `Sc1nccc(-c2ccccn2)n1` [Compound 9], the inhibition at 50 µM in test [1] (setting [4]) amounted to 29%; in test [2] (setting [5]), 43%.

Take `Sc1nccc(-c2cccs2)n1` [Compound 10]: the inhibition at 50 µM in test [1] (setting [4]) is 21%; in test [2] (setting [5]), 8%.

Turning to `Cc1cc(C(=O)O)nc2[nH]c(=S)[nH]c(=O)c12` [Compound 11], the inhibition at 50 µM was 20% in test [1] (setting [4]) and 50% in test [2] (setting [5]).

For the molecule `CC(=O)c1ccc(O)c(O)c1O` [Compound 12], the results for the inhibition at 50 µM in test [1] (setting [4]) and in test [2] (setting [5]) were 22% and 18%, respectively.

As to `O=C(O)c1c(O)cccc1O` [Compound 14], the figures for the inhibition at 50 µM in test [1] (setting [4]) and in test [2] (setting [5]) were 4% and 51%, respectively.

Regarding `O=C(CCCCCCC(=O)Nc1ccccc1)NO` [Compound 15, SAHA, reference compound], the inhibition at 50 µM in test [1] (setting [4]) is 18%.

Regarding `O=C(NO)c1n[nH]c(Cl)n1` [Compound 16], the inhibition at 50 µM worked out at 8% in test [1] (setting [4]) and 49% in test [2] (setting [5]).

As to `O=C1c2ccccc2C(=O)N1O` [Compound 18], the inhibition at 50 µM in test [1] (setting [4]) turned out to be 18%; in test [2] (setting [5]), 30%.

As to `Cc1nc2ccccc2c(=O)n1O` [Compound 19], the figures for the inhibition at 50 µM in test [1] (setting [4]) and in test [2] (setting [5]) were 22% and 46%, respectively.

As to `Cc1cc(C)n(-c2nc3ccccc3c(=O)n2O)n1` [Compound 20], the inhibition at 50 µM in test [1] (setting [4]) is 16%.

Turning to `O=c1c2ccccc2[nH]c(=S)n1O` [Compound 21], in test [1] (setting [4]), the inhibition at 50 µM was determined as 27%.

In the case of `O=c1c(-c2ccco2)[n+]([O-])c2ccccc2n1O` [Compound 22], the inhibition at 50 µM stood at 9% in test [1] (setting [4]) and 12% in test [2] (setting [5]).

As for `O=c1c(-c2cccs2)[n+]([O-])c2ccccc2n1O` [Compound 23], the inhibition at 50 µM in test [1] (setting [4]) turned out to be 25%; in test [2] (setting [5]), 51%.

Regarding `O=C(O)c1cccc(C(=O)O)n1` [Compound 24], the inhibition at 50 µM in test [1] (setting [6]) is 15%; in test [2] (setting [7]) it was over 50%.

Turning to `O=C(O)c1cc(O)cc(C(=O)O)n1` [Compound 25], the inhibition at 50 µM in test [1] (setting [6]) stood at 27%.

Regarding `CC(C)Cc1cc(C(=O)O)nc(O)n1` [Compound 26], the inhibition at 50 µM in test [1] (setting [4]) is 5%; in test [2] (setting [5]), 58%.

As to `Cc1cc(C(=O)O)nc(O)n1` [Compound 27], the inhibition at 50 µM in test [1] (setting [4]) was found to be 17%; in test [2] (setting [5]), 54%.

On to `Cc1ccc(O)c(CO)n1` [Compound 28], for which the inhibition at 50 µM was found to be 25% in test [1] (setting [4]) and 53% in test [2] (setting [5]).

As for `CC(C)c1cc(C(=O)O)nc2[nH][nH]c(=O)c12` [Compound 29], the inhibition at 50 µM in test [1] (setting [4]) came out at 18%.

Consider `Cc1cc(C(=O)O)nc2[nH][nH]c(=O)c12` [Compound 30], for which the inhibition at 50 µM was found to be 21% in test [1] (setting [4]) and 66% in test [2] (setting [5]).

Regarding `Oc1ccc2ccccc2n1` [Compound 32], the VIM-2 percentage inhibition in test [1] (setting [8]) was 9%. For the same molecule, the NDM-1 percentage inhibition in test [2] (setting [8]) amounted to 0%.

For the molecule `Oc1cnc2ccccc2c1` [Compound 33, 3-hydroxyquinoline], the inhibition at 50 µM in test [1] (read-out: VIM-2 percentage inhibition, 50 μM compound, 5 nM MBL, 10 μM nitrocefin, 30 mins) was 95%; in test [2] (setting [7]), 33%.

In test [1] (setting [8]), `Oc1ccnc2ccccc12` [Compound 34] gave a VIM-2 percentage inhibition of 9%. Moreover, the NDM-1 percentage inhibition in test [2] (setting [8]) is listed as 1%.

On to `Oc1cccc2ncccc12` [Compound 35], for which the VIM-2 percentage inhibition in test [1] (setting [8]) is 6%. Besides, the NDM-1 percentage inhibition in test [2] (setting [8]) turned out to be 6%.

With `Oc1ccc2ncccc2c1` [Compound 36], the VIM-2 percentage inhibition in test [1] (setting [8]) turned out to be 7%. The molecule also registered an NDM-1 percentage inhibition in test [2] (setting [8]) of 1%.

Turning to `Oc1ccc2cccnc2c1` [Compound 37], the VIM-2 percentage inhibition in test [1] (setting [8]) came to 3%. In test [2] (setting [8]), this molecule came in with an NDM-1 percentage inhibition of 8%.

The molecule `Nc1cccc2cccnc12` [Compound 38] displayed a VIM-2 percentage inhibition in test [1] (setting [8]) of 43%. The same molecule yielded an NDM-1 percentage inhibition in test [2] (setting [8]) of 3%.

In test [1] (setting [8]), `[O-][n+]1cccc2cccc(O)c21` [Compound 39] displayed a VIM-2 percentage inhibition of 27%. Moreover, in test [2] (setting [8]), the NDM-1 percentage inhibition is reported as 7%.

Molecule `Cc1ccc2cccc(O)c2n1` [Compound 40] displayed a VIM-2 percentage inhibition in test [1] (setting [8]) of 77%. The molecule also returned an NDM-1 percentage inhibition in test [2] (setting [8]) of 9%.

Regarding `Nc1ccc(O)c2ncccc12` [Compound 42], in test [3], the IC50 turned out to be 3.8 µM and the Ki came out at 0.88 µM. For the same molecule, the VIM-2 percentage inhibition in test [1] (setting [8]) turned out to be 96%.

Regarding `O=C(O)c1cnc2c(O)cccc2c1` [Compound 43], in test [3], the IC50 was found to be 1.6 µM and the Ki stood at 0.53 µM. Also, in test [1] (setting [8]), the VIM-2 percentage inhibition is reported as 91%.

Take `O=C(O)c1ccnc2c(O)cccc12` [Compound 44]: the VIM-2 percentage inhibition in test [1] (setting [8]) was 92%.

Take `Oc1ccc(Cl)c2cccnc12` [Compound 46]: in test [3], the IC50 was 4.1 µM and the Ki was 0.96 µM. Besides, the VIM-2 percentage inhibition in test [1] (setting [8]) was 98%.

In the case of `Oc1c(Cl)cc(Cl)c2cccnc12` [Compound 47], in test [3], the IC50 is 4.1 µM and the Ki came out at 1.1 µM. In test [1] (setting [8]), this molecule displayed a VIM-2 percentage inhibition of 96%.

Take `Oc1c(Br)cc(Br)c2cccnc12` [Compound 49]: the VIM-2 percentage inhibition in test [1] (setting [8]) is 92%.
